Results: patent US8865623B2, “Herbicidally active cyclic diones and derivatives thereof, processes for their preparation, compositions, and method of controlling weeds” (Syngenta Limited, priority 2009, dated 2014)

Key:
Assay type in all cases: in vivo
Lolium perenne (LOLPE) [1] = experiment: Post-emergence herbicidal activity, glasshouse pot test; details: rate 250 g/ha, evaluated after 13 days; for pest or weed control at 250 g/ha: Lolium perenne, 312 h, read-out: Post-emergence activity LOLPE (100=total damage to plant; 0=no damage to plant)
Outline: (§1)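 Sow seeds in standard soil in pots; grow 1 day (pre-emergence) or 8 days (post-emergence) at 24/16° C, 14 h light, 65% humidity. Spray aqueous solution from acetone/water 50:50 + 0.5% Tween 20 formulation. Grow on, watering twice daily; score damage 0–100 after 13 days.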

[2] = tested on: Alopecurus myosuroides (ALOMY); experiment: as above; details: rate 250 g/ha, evaluated after 13 days; for pest or weed control at 250 g/ha: Alopecurus myosuroides, 312 h, read-out: Post-emergence activity ALOMY (100=total damage to plant; 0=no damage to plant)
Outline: as §1

Avena fatua (AVEFA) [3] = experiment: as above; details: rate 250 g/ha, evaluated after 13 days; for pest or weed control at 250 g/ha: Avena fatua, 312 h, read-out: Post-emergence activity AVEFA (100=total damage to plant; 0=no damage to plant)
Outline: as §1

[4] = tested on: Echinochloa crus-galli (ECHCG); experiment: as above; details: rate 250 g/ha, evaluated after 13 days; for pest or weed control at 250 g/ha: Echinochloa crus-galli, 312 h, read-out: Post-emergence activity ECHCG (100=total damage to plant; 0=no damage to plant)
Outline: as §1

Lolium perenne (LOLPE) [5] = experiment: Pre-emergence herbicidal activity, glasshouse pot test; details: pre-emergence, evaluated after 13 days; for pest or weed control at 250 g/ha: Lolium perenne, 312 h, Rate 250 g/ha, read-out: Pre-emergence activity LOLPE (100=total damage to plant; 0=no damage to plant)
Outline: as §1

[6] = tested on: Alopecurus myosuroides (ALOMY); experiment: as above; details: pre-emergence, evaluated after 13 days; for pest or weed control at 250 g/ha: Alopecurus myosuroides, 312 h, Rate 250 g/ha, read-out: Pre-emergence activity ALOMY (100=total damage to plant; 0=no damage to plant)
Outline: as §1

Avena fatua (AVEFA) [7] = experiment: as above; details: pre-emergence, evaluated after 13 days; for pest or weed control at 250 g/ha: Avena fatua, 312 h, Rate 250 g/ha, read-out: Pre-emergence activity AVEFA (100=total damage to plant; 0=no damage to plant)
Outline: as §1

[8] = tested on: Echinochloa crus-galli (ECHCG); experiment: as above; details: pre-emergence, evaluated after 13 days; for pest or weed control at 250 g/ha: Echinochloa crus-galli, 312 h, Rate 250 g/ha, read-out: Pre-emergence activity ECHCG (100=total damage to plant; 0=no damage to plant)
Outline: as §1

Structure (SMILES)	pest or weed control at 250 g/ha (Lolium perenne (LOLPE) [1]) [%]	pest or weed control at 250 g/ha [2] [%]	pest or weed control at 250 g/ha (Avena fatua (AVEFA) [3]) [%]	pest or weed control at 250 g/ha [4] [%]	pest or weed control at 250 g/ha (Lolium perenne (LOLPE) [5]) [%]	pest or weed control at 250 g/ha [6] [%]	pest or weed control at 250 g/ha (Avena fatua (AVEFA) [7]) [%]	pest or weed control at 250 g/ha [8] [%]	LOLPE damage to plant (100=total damage to plant; 0=no damage to plant) (Lolium perenne (LOLPE) [1])	ALOMY damage to plant (100=total damage to plant; 0=no damage to plant) [2]	AVEFA damage to plant (100=total damage to plant; 0=no damage to plant) (Avena fatua (AVEFA) [3])	ECHCG damage to plant (100=total damage to plant; 0=no damage to plant) [4]	LOLPE damage to plant (100=total damage to plant; 0=no damage to plant) (Lolium perenne (LOLPE) [5]; rate 250 g/ha)	ALOMY damage to plant (100=total damage to plant; 0=no damage to plant) ([6]; rate 250 g/ha)	AVEFA damage to plant (100=total damage to plant; 0=no damage to plant) (Avena fatua (AVEFA) [7]; rate 250 g/ha)	ECHCG damage to plant (100=total damage to plant; 0=no damage to plant) ([8]; rate 250 g/ha)
CCc1ccc(Oc2ncc(Cl)cc2C(F)(F)F)cc1C1=C(O)[C@H]2CC[C@H](C2)C1=O [Example A-346]	90	70	90	100	100	100	90	100	–	–	–	–	–	–	–	–
CC1(C)OC(C)(C)C(O)=C(c2cc(Oc3ccc(Cl)c(F)c3)ccc2C2CC2)C1=O [Example A-347]	100	90	50	100	100	70	10	100	–	–	–	–	–	–	–	–
CC1(C)OC(C)(C)C(O)=C(c2cc(Oc3ccc(Cl)cc3F)ccc2C2CC2)C1=O [Example A-348]	90	100	60	100	100	60	10	100	–	–	–	–	–	–	–	–
CC1(C)OC(C)(C)C(O)=C(c2cc(Oc3ccc(Cl)cc3)ccc2C2CC2)C1=O [Example A-349]	80	60	0	100	90	40	10	100	–	–	–	–	–	–	–	–
CC1(C)OC(C)(C)C(O)=C(c2cc(Oc3ccc(Br)cc3F)ccc2C2CC2)C1=O [Example A-350]	90	90	90	100	100	90	50	100	–	–	–	–	–	–	–	–
CC1(C)OC(C)(C)C(O)=C(c2cc(Oc3ccc(Br)cc3)ccc2C2CC2)C1=O [Example A-351]	100	90	10	100	90	60	10	100	–	–	–	–	–	–	–	–
CC1(C)OC(C)(C)C(O)=C(c2cc(Oc3ccc(Br)cc3Cl)ccc2C2CC2)C1=O [Example A-352]	90	90	70	100	90	70	20	100	–	–	–	–	–	–	–	–
CC1(C)OC(C)(C)C(O)=C(c2cc(Oc3ccc(F)cc3)ccc2C2CC2)C1=O [Example A-353]	50	10	10	100	30	0	0	100	–	–	–	–	–	–	–	–
CC1(C)OC(C)(C)C(O)=C(c2cc(Oc3ccc(OC(F)(F)F)cc3)ccc2C2CC2)C1=O [Example A-356]	100	100	100	100	100	90	70	100	–	–	–	–	–	–	–	–
CC1(C)OC(C)(C)C(O)=C(c2cc(Oc3cc(C#N)ccc3F)ccc2C2CC2)C1=O [Example A-358]	60	90	60	100	90	60	0	90	–	–	–	–	–	–	–	–
CC1(C)OC(C)(C)C(O)=C(c2cc(Oc3ncc(Cl)cc3Cl)ccc2C2CC2)C1=O [Example A-364]	90	100	90	100	90	70	60	100	–	–	–	–	–	–	–	–
CC1(C)OC(C)(C)C(O)=C(c2cc(Oc3nc4ccccc4s3)ccc2C2CC2)C1=O [Example A-365]	100	100	10	100	90	80	0	100	–	–	–	–	–	–	–	–
CC1(C)OC(C)(C)C(O)=C(c2cc(Oc3nc4ccc(Cl)cc4s3)ccc2C2CC2)C1=O [Example A-366]	100	100	80	100	90	50	30	90	–	–	–	–	–	–	–	–
CC1(C)OC(C)(C)C(O)=C(c2cc(Oc3nc4ccc(C(F)(F)F)cc4s3)ccc2C2CC2)C1=O [Example A-370]	80	90	100	100	90	50	30	70	–	–	–	–	–	–	–	–
CC1(C)OC(C)(C)C(O)=C(c2cc(Oc3cnc4cc(F)ccc4n3)ccc2C2CC2)C1=O [Example A-372]	100	100	100	100	100	70	90	90	–	–	–	–	–	–	–	–
COc1ccc2nc(Oc3ccc(C4CC4)c(C4=C(O)C(C)(C)OC(C)(C)C4=O)c3)sc2c1 [Example A-374]	100	90	90	100	100	50	30	90	–	–	–	–	–	–	–	–
CC1(C)OC(C)(C)C(O)=C(c2cc(Oc3ncc(Cl)cc3C(F)(F)F)ccc2C2CC2)C1=O [Example A-377]	100	100	100	100	80	70	60	100	–	–	–	–	–	–	–	–
CCc1ccc(Oc2ccc(C#N)cc2F)cc1C1=C(OC(C)=O)C(C)(C)OC(C)(C)C1=O [Example P-1]	–	–	–	–	–	–	–	–	90	80	60	100	100	80	20	100
